In patent US20080171159A1, “METHOD FOR STORING A DRUG-LOADED SUPPORT” (priority 2007, published 2008) one finds vapor pressure data, which are given here for 5 compounds.

A short description of this data set: Vapor pressure at 25° C. by the Donovan method (gas chromatography). The class given is physicochemical. The protocol: The pyrethroid compound volatile at ambient temperature used in the present invention (hereinafter referred to as “the present active ingredient”) is a pyrethroid compound with a vapor pressure of about 6×10^−6 to about 1×10^−4 mm Hg at 25° C. when measured, for instance, by the method reported by Stephen F. Donovan (New method for estimating vapor pressure by use of gas chromatography, Journal of Chromatography A. 749(1996) 123-129, hereinafter referred to as “Donovan method”) and an ester compound represented by formula (I)
Specific examples of the present active ingredient are 2,3,5,6-tetrafluoro-4-methylbenzyl 3-(1-propenyl)-2,2-dimethylcyclopropanecarboxylate (7.7×10^−5 mm Hg), 2,3,5,6-tetrafluoro-4-methylbenzyl 3-(2-methyl-1-propenyl)-2,2-dimethylcyclopropanecarboxylate(3.1×10^−5 mm Hg), 2,3,5,6-tetrafluorobenzyl 3-(2,2-dichlorovinyl)-2,2-dimethylcyclopropanecarboxylate (2.6×10^−5 mm Hg), 2,3,5,6-tetrafluoro-4-methoxymethylbenzyl 3-(1-propenyl)-2,2-dimethylcyclopropanecarboxylate(1.4×10^-5 mm Hg), and 2,3,5,6-tetrafluoro-4-methoxymethylbenzyl 3-(2-methyl-1-propenyl)-2,2-dimethylcyclopropanecarboxylate(6.8×10^−6 mm Hg).
`COCc1c(F)c(F)c(COC(=O)C2C(C=C(C)C)C2(C)C)c(F)c1F` (centres unmarked) [2,3,5,6-tetrafluoro-4-methoxymethylbenzyl 3-(2-methyl-1-propenyl)-2,2-dimethylcyclopropanecarboxylate]: the vapor pressure is 6.8×10^−6 mm Hg.

As to `CC=CC1C(C(=O)OCc2c(F)c(F)c(COC)c(F)c2F)C1(C)C` (centres unmarked) [2,3,5,6-tetrafluoro-4-methoxymethylbenzyl 3-(1-propenyl)-2,2-dimethylcyclopropanecarboxylate], the vapor pressure was 1.4×10^-5 mm Hg.

Regarding `CC1(C)C(C=C(Cl)Cl)C1C(=O)OCc1c(F)c(F)cc(F)c1F` (centres unmarked) [2,3,5,6-tetrafluorobenzyl 3-(2,2-dichlorovinyl)-2,2-dimethylcyclopropanecarboxylate], the vapor pressure is reported as 2.6×10^−5 mm Hg.

For `CC(C)=CC1C(C(=O)OCc2c(F)c(F)c(C)c(F)c2F)C1(C)C` (centres unmarked) [2,3,5,6-tetrafluoro-4-methylbenzyl 3-(2-methyl-1-propenyl)-2,2-dimethylcyclopropanecarboxylate], the vapor pressure is 3.1×10^−5 mm Hg.

Turning to `CC=CC1C(C(=O)OCc2c(F)c(F)c(C)c(F)c2F)C1(C)C` (centres unmarked) [2,3,5,6-tetrafluoro-4-methylbenzyl 3-(1-propenyl)-2,2-dimethylcyclopropanecarboxylate], the vapor pressure is 7.7×10^−5 mm Hg.
